Results reported in PMC7470027, “Synthesis and structure-activity relationships of novel 5-(hydroxamic acid)methyl oxazolidinone derivatives as 5-lipoxygenase inhibitors” (Journal of Enzyme Inhibition and Medicinal Chemistry, 2020).

What was measured:
recombinant human 5-LO = target: T1, recombinant human 5-LO (Homo sapiens, UniProt P09917); experiment: Direct inhibition of 5-LO activity in a cell-free assay (H2DCF-DA fluorescence); type: biochemical; conditions: cell-free, recombinant human 5-LO; 95% confidence interval in brackets
T1 sequence (P09917 1-674): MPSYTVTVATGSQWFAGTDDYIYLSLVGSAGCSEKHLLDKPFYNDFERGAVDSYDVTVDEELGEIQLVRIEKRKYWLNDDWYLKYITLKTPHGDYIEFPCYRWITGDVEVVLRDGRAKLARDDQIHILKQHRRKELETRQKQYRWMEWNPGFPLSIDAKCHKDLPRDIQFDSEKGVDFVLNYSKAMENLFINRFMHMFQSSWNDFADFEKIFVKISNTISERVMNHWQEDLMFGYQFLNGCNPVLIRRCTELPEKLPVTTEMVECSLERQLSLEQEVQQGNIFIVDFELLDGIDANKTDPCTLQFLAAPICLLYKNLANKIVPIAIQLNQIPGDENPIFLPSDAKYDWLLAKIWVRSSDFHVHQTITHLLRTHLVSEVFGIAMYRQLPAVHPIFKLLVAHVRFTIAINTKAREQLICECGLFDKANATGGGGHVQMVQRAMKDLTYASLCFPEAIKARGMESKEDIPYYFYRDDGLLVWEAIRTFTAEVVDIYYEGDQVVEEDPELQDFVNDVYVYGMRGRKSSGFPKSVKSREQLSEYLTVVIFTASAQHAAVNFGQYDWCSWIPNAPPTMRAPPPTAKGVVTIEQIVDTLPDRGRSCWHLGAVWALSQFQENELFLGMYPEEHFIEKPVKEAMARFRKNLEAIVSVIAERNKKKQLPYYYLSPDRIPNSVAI
Experimental: The assay was based on the oxidation of the dye 2′,7′-dichlorodihydrofluorescein diacetate (H2DCF-DA) to a highly fluorescent product by 5-LO enzymatic products. H2DCF-DA (60 µM) was first pre-cleaved by incubating with 450 mU/ml recombinant human 5-LO enzyme in Tris buffer (containing 50 mM Tris, pH = 7.5, 2 mM EDTA, 2 mM CaCl2, 1 mM DTT and 0.6 U/ml glutathione peroxidase) for 10 min at room temperature. […] After 10 min incubation at room temperature, the reaction was started with the addition of 50 µl of substrate solution (Tris buffer containing 20 µM ATP and 20 µM arachidonic acid (AA). After a further 20 min, the reaction was terminated with 100 µl acetonitrile. Fluorescence was read at 500 nm excitation and 520 nm emission, with Novostar^R microplate reader (BMG Labtech, Offenburg, Germany). Appropriate controls, including 100 µM nordihydroguaiaretic acid (NDGA), were included to isolate only the 5-LO-attributable, NDGA-inhibitable RFU values.
All data were analysed using GraphPad Prism software (GraphPad Software, San Diego, CA). […] Differences between experimental groups were first analysed by one-way ANOVA, followed by Bonferroni’s post-hoc test. A p-value of less than 0.05 was taken as statistically significant.

[1] = test system: leukotriene (LT) biosynthesis / 5-LO; experiment: Overall activity across the four in vitro test systems (three cell-based LT release assays and 5-LO)
Experimental: Furthermore, in order to confirm that the in vitro inhibitory activity of the compounds was not due to the direct toxic effects on the cells, the effect of the compounds on the viability of isolated human monocytes after 3 h and 24 h treatment was performed. Finally, in vivo anti-inflammatory studies were performed using the zymosan-induced peritoneal inflammation model in mice, which is a well-known model in which the LTs are known to play a critical role[26].
The inhibitory activity data for the tested compounds obtained in three cell-based in vitro test systems - LTB4 release from human whole blood, LTC4 release from isolated human monocytes and LTC4 release from IgE/antigen-activated mouse mast cells, are shown in Table 1. Similar data on the direct inhibitory effect on the enzymatic activity of recombinant human 5-LO, together with the calculated Clog P (log of partition coefficient) values, which is an indication of the lipophilicity of each compound, are also shown in Table 1.

In the case of CCCCCCC(=O)N(O)C[C@H]1CN(c2ccc(N3CCOCC3)c(F)c2)C(=O)O1 [PH-249, (R)-N-((3-(3-fluoro-4-morpholinophenyl)-2-oxooxazolidin-5-yl)methyl)-N-hydroxyheptanamide], the IC50 (recombinant human 5-LO) is reported as 1900 nM, the “Activity across the in vitro test systems (in words)” value ([1]; cell-based systems and cell-free 5-LO) is reported as “active in all four test systems” and the IC50 ([1]; summary statements, in vitro test systems, read-out: IC50 (test system not specified / across test systems)) is reported as under 1000 nM.
